Patent US20090186814A1, “Methods and Compositions for Reducing Ischemia-Derived Microvascular Damage” (priority 2005, published 2009)
Read-outs that look alike come from different tables or passages of the source. Ends that are not written are not given here. Peptide text beside a SMILES is read from it. * marks the point of attachment. Cbz = O=C(OCc1ccccc1)*; CH2F = FC*

Tests used:
rat myocardium = conditions: in vivo rat myocardium; cited from earlier work
rabbit femoral arteries = conditions: in vivo rabbit femoral arteries; cited from earlier work
caspase-3 [1] = conditions: cited from earlier work
mouse hearts = test: Ex vivo model of global ischemia and reperfusion injury, Langendorff-perfused mouse hearts (WT and δV1-1 transgenic)
Protocol: Transgenic mice (TG) that selectively express δV1-1 in myocytes were created using α- myosin heavy chain promoter. Hah, H. S., et al., Circ. Res. 91:741-748 (2002). Hemodynamic and morphometric parameters in these transgenic mice, as measured by echocardiographic measurements in vivo, were not different from those measured in wild type mice (WT). Inagaki, K., et al., Circulation 108:869-875 (2003). Mice were heparinized (4000U/kg IP) and anesthetized with sodium pentobarbital (200mg/kg IP). Hearts were perfused with an oxygenated Krebs-Henseleit buffer at 37° C. in a Langendorff system as previously described in Inagaki, K., et al., Circulation 108:869-875 (2003). Hearts were subjected to a 30-minute global ischemia and a 120-minute full reperfusion. The coronary flow rate was kept constant at 3 mL/minute (0.04L/min/g; initial coronary perfusion pressure: WT 67.4±5.1, WT+δV1-1 61.0±4.6, TG 62.6±3.9, TG+δV1-1 64.6±5.4 mmHg; PENS, n=5 for each group; FIG. 1) using an adjustable-speed rotary pump during the experiment to provide 60-80 mmHg of initial coronary perfusion pressure (CPP) as previously reported in Webster, K. A., et al., J. Clin. Invest. 104:239-252 (1999). CPP was measured through a sidearm in the Langendorff system. Coronary vascular resistance (CVR) was defined as CPP divided by coronary flow rate. Hearts were perfused with Tat-conjugated δV1-1 [50 nmol/L; Tat-conjugated δV1-1 described in Chen, L. et al., Proc. Natl. Acad. Sci. U.S.A. 98:11114-11119 (2001)] or vehicle (control) during the first 20 minutes of reperfusion (n=5 for each group). Coronary perfusion effluent was collected to determine creatine phosphokinase (CPK) release.
(§1) At the end of the reperfusion, 1 -mm-thick transverse sections of mouse hearts were incubated in triphenyltetrazolium chloride solution (TTC) (1% in phosphate buffer, pH 7.4) at 37° C. for 15 minutes as described in Inagaki, K. et al., Circulation 108:869-875 (2003) to determine the viable myocardium. One cm-thick transverse segments of the hearts were stained with TTC. Infarct size was expressed as a percentage of the total area at risk. Immunohistochemistry was performed on cardiac tissue two hours after reperfusion in murine hearts (n=5 for each group) as described in Vakeva, A. P., et al., Circulation 97:2259-2267 (1998). Hearts were immediately frozen in Optimal Cutting Temperature (OCT) Compound, and 5-μm-thick cryosections were obtained. Sections were fixed with 4% formaldehyde, blocked with 1 % normal donkey serum and incubated with mouse monoclonal anti-(x-actinin antibody (Sigma-Aldrich) or goat anti-PECAM-1 antibody (Santa Cruz Biochemicals) to distinguish between endothelial cells and myocytes. Secondary antibody treatments were carried out using goat anti-mouse IgG antibody conjugated with FITC or donkey anti-goat lgG antibody conjugated with FITC (Molecular Probe). Terminal deoxynucleotidyl transferase-mediated dUTP nick-end labeling (TUNEL) staining was performed for detection of apoptotic cells (Roche) and nuclei were counterstained with 4, 6-diamidino-2-phenylindole (DAPI; Sigma-Aldrich). Tissue samples from the non-ischemic area were used as negative control. TUNEL-positive nuclei were counted in a total of 1,500 myocytes and 500 of endothelial cells over several random fields.
Data are expressed as mean±SEM. Two-way ANOVA for repeated measures was used for time-course of cardiac function and vascular function, 1-way factorial ANOVA with Fisher's test for multiple comparisons, and unpaired or paired student's t-test for difference between 2 groups. P<0.05 was considered statistically significant.

Yorkshire swine = format: in vivo, pig; parameters: key to CFR(Cx) / CFR(LAD): hyperemic average peak velocity ÷ baseline average peak velocity; conditions: for CFR(LAD): adenosine hyperemia; for CFR(Cx): unaffected left circumflex artery
Protocol: Yorkshire swine (30-45kg) were maintained during the every procedure under anesthesia by inhaled isoflurane (1-2%). A bolus of 300 IU/kg heparin was administered intravenously through the sheath (6 French) placed in the carotid artery. A 10 mm, over-the-wire angioplasty balloon was placed in the left anterior descending artery (LAD) proximal to the first diagonal branch. The balloon was inflated to occlude the LAD for 30 minutes. At the last 1 minute of a 30-minute ischemia, Tat-conjugated δV1-1 (250 ng/kg) or saline was infused at 1 mL/minute for 1 minute through the guide-wire lumen of the balloon catheter (n=9 for each group). Left ventriculogram (LVG) was obtained (40° left anterior oblique projection, 30 frames/sec) to measure cardiac function at 5 time points; before ischemia (baseline), 30 minutes, 24 hours, 5 days, and 10 days after ischemia (n=9 for each group). Ejection fraction (EF) and hypokinetic area were calculated using the software (Plus Plus, Sanders Data System, Calif.) with elimination of frames after premature ventricular contraction beats. Blood pressure and heart rate were measured just before LVG measurements at each time point through the water-filled catheter (Table 1). Coronary flow was measured by a 0.014″ Doppler-tipped guide wire (Flowire, JOMED Inc.) in the LAD, and the unaffected, left circumflex artery (LCx). The wire tip was placed 2 cm distal from the balloon-occluded site in the LAD. After stable baseline flow velocity was recorded, adenosine [endothelium-independent vasodilator; 48 μg; Suryapranata, H., et al., Circulation 89:1109-1117 (1994)] was infused intracoronarily to induce hyperemia (a transient increase in coronary blood flow through microvascular vasodilation) at 5 time points: before ischemia (baseline), 30 minutes, 24 hours, 5 days, and 10 days after ischemia (n=9 for each group). Bradykinin [endothelium-dependent vaodilator, 0.2ml of a 3×10^−6M in saline; Rodriguez-Sinovas, A., et al., J. Appl. Physiol. 95:81-88 (2003)] was also infused intracoronary before ischemia and 24 hours after reperfusion (n=6 for each group). Coronary flow reserve was calculated by dividing the average peak velocity (APV) at hyperemic phase by the baseline APV as described in Suryapranata, H., et al., Circulation 89:1109-1117 (1994). After reperfusion, to determine the area at risk in porcine hearts, LAD ligation was performed at the balloon-occluded site and Evan's Blue (0.0025%) was perfused as previously described in Inagaki, K., et al., Circulation 2304-2307 (2003). All other methods were performed as described in Example 1.

[2] = system: endothelial cells and myocytes of porcine hearts; test: TUNEL staining and electron microscopy of porcine cardiac tissue 4 hours after reperfusion; format: in vivo, pig
Protocol: as §1
Immunohistochemistry was performed on cardiac tissue as described in Example 1 with the exception that immunohisotchemistry was performed 4 hours after reperfusion in porcine hearts (n=3 for each group).
Electron microscopy study was performed on porcine cardiac tissue 4 hours after reperfusion (n=3 for each group). Samples taken from the mid-myocardium were fixed (FIG. 3A) and prepared as previously reported in Gottlieb, R. A., et al., J. Clin Invest. 94:1621-1628 (1994). Ultra-thin sections were stained with uranyl acetate lead citrate and examined with the H300 (Hitachi) electron microscopy. All other methods were as previously described in Examples 1 and 2.

adult rat cardiomyocytes = conditions: cited from earlier work
caspase-3 [3] = conditions: myocardium; cited from earlier work
[4] = further δV1-1 infusion to the transgenic hearts
[5] = transgenic mouse hearts, exogenous δV1-1
[6] = wild type hearts, exogenous δV1-1
[7] = wild type hearts, δV1-1 delivered through coronary arteries, 50 nmol/L, first 20 minutes of reperfusion
[8] = LAD, Baseline (before ischemia)
[9] = electron microscopy, 4 hours after reperfusion
[10] = electron microscopy, 4 hours after reperfusion, listed as δV1-
[11] = four hours after reperfusion, TUNEL, n=3

Compound: COC(=O)C[C@H](NC(=O)[C@H](C)NC(=O)[C@@H](NC(=O)OCc1ccccc1)C(C)C)C(=O)CF [ZVADfmk] (Cbz-Val-Ala-Asp(OMe)-CH2F)
- reperfusion injury (rat myocardium): reduces reperfusion injury
- staurosporin-induced endothelial apoptosis (rabbit femoral arteries): reduces

Compound: CC(=O)c1c(O)c(C)c(O)c(Cc2c(O)c3c(c(C(=O)/C=C/c4ccccc4)c2O)OC(C)(C)C=C3)c1O [rottlerin]
- caspase-3 activity (caspase-3 [1]): attenuated

Compound: δV1-1: δPKC inhibitor peptide, SEQ ID NO:1 (SFNSYELGSL), amino acids 8-17 of rat δPKC; used Tat-conjugated in the examples (also: Tat conjugate in examples; listed as Rattus norvegicus)
- coronary vascular resistance (CVR) during reperfusion (mouse hearts; further treatment of transgenic mouse hearts): significantly minimized the rise of CVR
- CPK release (mouse hearts; [4]): unaffected
- infarct size (mouse hearts; [4]): unaffected
- TUNEL-positive myocytes (mouse hearts; [5]): without any further effect
- decrease of TUNEL-positive endothelial cells (mouse hearts; [5]): 80%
- reduction of number of TUNEL positive endothelial cells (mouse hearts; [6]): 80%
- reduction of number of TUNEL positive myocytes (mouse hearts; [6]): 80%
- decrease in CPK release (mouse hearts; [7]): about 70%
- decrease in infarct size (mouse hearts; [7]): about 70%
- CFR(LAD) (Yorkshire swine; 30 min R): 2.00 ± 0.20
- coronary flow reserve in LAD following bradykinin infusion (Yorkshire swine; 24 hours after reperfusion, n=6): did not decrease
- CFR(LAD) (Yorkshire swine; 24 hr R): 2.50 ± 0.24
- CFR(LAD) (Yorkshire swine; 5 days R): 2.68 ± 0.21
- CFR(LAD) (Yorkshire swine; 10 days R): 2.67 ± 0.27
- ejection fraction (Yorkshire swine; 10 days after ischemia, n=9): 69.9±1.6%
- hypokinetic area (Yorkshire swine; 10 days after ischemia, n=9): 4.7±2.0%
- CFR(LAD) (Yorkshire swine; Baseline (before ischemia)): 2.52 ± 0.16
- b-APV (baseline average peak flow velocity) (Yorkshire swine; Cx, 30 min R): 20.3 ± 3 cm/s
- h-APV (hyperemia average peak flow velocity) (Yorkshire swine; Cx, 30 min R): 37 ± 3 cm/s
- b-APV (baseline average peak flow velocity) (Yorkshire swine; Cx, 24 hr R): 15 ± 2 cm/s
- h-APV (hyperemia average peak flow velocity) (Yorkshire swine; Cx, 24 hr R): 30 ± 4 cm/s
- b-APV (baseline average peak flow velocity) (Yorkshire swine; Cx, 5 days R): 25 ± 5 cm/s
- h-APV (hyperemia average peak flow velocity) (Yorkshire swine; Cx, 5 days R): 55 ± 10 cm/s
- b-APV (baseline average peak flow velocity) (Yorkshire swine; Cx, 10 days R): 25 ± 3 cm/s
- h-APV (hyperemia average peak flow velocity) (Yorkshire swine; Cx, 10 days R): 55 ± 5 cm/s
- b-APV (baseline average peak flow velocity) (Yorkshire swine; Cx, Baseline (before ischemia)): 24 ± 2 cm/s
- h-APV (hyperemia average peak flow velocity) (Yorkshire swine; Cx, Baseline (before ischemia)): 61 ± 3 cm/s
- b-APV (baseline average peak flow velocity) (Yorkshire swine; LAD, 30 min R): 27 ± 4 cm/s
- h-APV (hyperemia average peak flow velocity) (Yorkshire swine; LAD, 30 min R): 49 ± 4 cm/s
- b-APV (baseline average peak flow velocity) (Yorkshire swine; LAD, 24 hr R): 18 ± 1 cm/s
- h-APV (hyperemia average peak flow velocity) (Yorkshire swine; LAD, 24 hr R): 46 ± 6 cm/s
- b-APV (baseline average peak flow velocity) (Yorkshire swine; LAD, 5 days R): 24 ± 3 cm/s
- h-APV (hyperemia average peak flow velocity) (Yorkshire swine; LAD, 5 days R): 67 ± 9 cm/s
- b-APV (baseline average peak flow velocity) (Yorkshire swine; LAD, 10 days R): 25 ± 4 cm/s
- h-APV (hyperemia average peak flow velocity) (Yorkshire swine; LAD, 10 days R): 57 ± 6 cm/s
- b-APV (baseline average peak flow velocity) (Yorkshire swine; [8]): 24 ± 3 cm/s
- h-APV (hyperemia average peak flow velocity) (Yorkshire swine; [8]): 58 ± 7 cm/s
- resting APV and coronary flow reserve in left circumflex artery (LCx, control artery) (Yorkshire swine; all time points): remained normal
- infarct size (Yorkshire swine; intracoronary treatment at the time of reperfusion, 10 days after ischemia, n=9): 4.4±1.1%
- blood pressure, heart rate or vessel diameter vs. control group (Yorkshire swine; pig, in vivo): no significant differences
- CFR(Cx) (Yorkshire swine; 30 min R): 1.73 ± 0.21
- CFR(Cx) (Yorkshire swine; 24 hr R): 1.96 ± 0.04
- CFR(Cx) (Yorkshire swine; 5 days R): 2.01 ± 0.14
- CFR(Cx) (Yorkshire swine; 10 days R): 2.46 ± 0.20
- CFR(Cx) (Yorkshire swine; Baseline (before ischemia)): 2.44 ± 0.10
- time until coronary flow reserve (adenosine, LAD) was normalized (Yorkshire swine; δV1-1-treated pigs): ≤ 24 h
- coronary flow reserve following adenosine infusion in LAD after reperfusion (Yorkshire swine; δV1-1-treated pigs, 250 ng/kg intracoronary at last 1 minute of ischemia): minor decrease
- endothelial cell swelling [2, 9]: minimal swelling
- microvasculature lumen [2, 9]: patent
- myocyte damage (contraction bands, swollen mitochondria) [2, 9]: no such pathological changes were observed
- obstruction of capillaries by red and white blood cells [2, 9]: rarely seen
- endothelial cell swelling [2, 10]: slight endothelial swelling
- myocyte damage (contraction bands, swollen mitochondria) [2, 10]: neither contraction bands nor swollen mitochondria
- decrease of apoptosis in endothelial cells [2, 11]: about 70%
- decrease of apoptosis in myocytes [2, 11]: about 70%
- hyperglycemia-induced apoptosis (adult rat cardiomyocytes): inhibits
- free radical formation (adult rat cardiomyocytes; hyperglycemia): inhibits
- reperfusion-induced caspase-3 activity (caspase-3 [3]): reduced
